# Test results from US20110178396A1, “Nicotinamide Derivatives” (CRC FOR BIOMEDICAL IMAGING DEVELOPMENT LTD., priority 2008, published 2011).
# Tests used:
# [1] = test system: B16F0 melanoma tumour; experiment: Biodistribution in B16 melanoma bearing mice; format: in vivo, C57BL/6J mice; conditions: C57BL/6J mice; for Organ distribution Intestine / Organ distribution Liver / Organ distribution Spleen / Organ distribution Stomach / Organ distribution Thyroid / Organ distribution Tumour: B16F0 tumour, mean ± S.D.; for Organ distribution Intestine / Organ distribution Liver / Organ distribution Spleen / Organ distribution Stomach / Organ distribution Thyroid / Organ distribution Tumour / Uptake Lung / uptake BLOOD / uptake BRAIN / uptake HEART / uptake KIDNEY / uptake LIVER / uptake TUMOUR: n = 5; for tumour standardized uptake value (SUVt) / Uptake Lung / uptake BLOOD / uptake BRAIN / uptake HEART / uptake KIDNEY / uptake LIVER / uptake TUMOUR: B16 tumour; for Uptake Lung / uptake BLOOD / uptake BRAIN / uptake HEART / uptake KIDNEY / uptake LIVER / uptake TUMOUR: mean ± SD
# Protocol: Animal experiments were performed in compliance with the NHMRC Australian Code of Practice for the care and use of animals for scientific purposes. Female C57BL/6J black and BALB/c nude albino mice of 5 weeks age were obtained from the Animal Resources Centre, Western Australia. B16F0 murine melanoma cells were originally obtained from European Collection of Cell Cultures (UK) and A375 human amelanotic melanoma cells were originally obtained from American Type Culture Collection (USA). Before transplantation, B16F0 and A375 melanoma cells were maintained as a monolayer in RPMI culture medium supplemented with 10% foetal calf serum and antibiotics and passaged with trypsinisation. Early passages were frozen and stored in liquid nitrogen. Cells were passaged to P=10 and then discarded. Frozen aliquots were grown in a monolayer culture to between 80-95% confluence and for transplantation were trypsinised and washed with Ca^2+ and Mg^2+ free phosphate buffered saline (PBS). For inoculation, B16F0 melanoma cells were resuspended in Ca^2+ and Mg^2+ free PBS at 3 or 5×10^6 viable cells per ml and 0.1 ml was subcutaneously injected at the left flank of 6-7 weeks old C57BL/6J mice. Eleven days later, tumours could be palpated in >98% of inoculated animals. A375 human melanoma cells were resuspended at 1×10^7 viablecells per ml and 0.1 ml was injected subcutaneously at the left flank of 6 weeks old BALB/c nude mice and 25-26 days later tumours could be palpated with ˜60% of inoculated animals developing tumours.
# Eleven days (B16F0 melanoma) and 25 days (A375 human melanoma) after tumour transplantation, the [^18F]nicotinamides (0.5-1.5 MBq, 100 μl) and [^123I]nicotinamide (0.37-0.74 MBq, 100 μl) derivatives were injected intravenously via the tail vein into mice (15-18 g). Time points of 1, 3, 6, 24, 48, 72 h after injection were chosen for determining the distribution of each compound in various organs and tissues for the iodine-123 labelled compounds and between 15 min and 6 hours (e.g. 15 min, 30 min, 1 h, 2 h, 4 h or 6 h) were chosen for the ^18F-labelled compounds. At defined times post injection, groups of mice (n=5) were weighed, sacrificed by CO2 administration followed by cervical dislocation and dissected. Selected organs were weighed and their radioactivity measured with a γ-counter. The remaining activity in the carcass was also determined in order to obtain the total activity in the mouse at defined time points. The fraction of injected activity (% ID) in the organ was calculated by comparison with suitable dilutions of the injected dose. Then, the radioactivity concentration in the organ (% ID/g) was found by dividing the % ID for each organ by the weight of the organ.
# [2] = test system: melanoma tumour; conditions: melanoma tumour bearing mice, cited from earlier work
smiles,measurement,setting,value
"O=C(c1cncc(I)c1)N1CCN(Cc2ccccc2)CC1 [[^123I]20, (4-Benzylpiperazin-1-yl)(5-iodopyridin-3-yl)methanone]",Organ distribution Intestine,[1]; 1 h,58 ± 2 % ID/organ
same,Organ distribution Liver,[1]; 1 h,3.6 ± 0.9 % ID/organ
same,Organ distribution Spleen,[1]; 1 h,0.05 ± 0.01 % ID/organ
same,Organ distribution Stomach,[1]; 1 h,1.7 ± 0.6 % ID/organ
same,Organ distribution Thyroid,[1]; 1 h,0.30 ± 0.08 % ID/organ
same,Organ distribution Tumour,[1]; 1 h,2.6 ± 1.0 % ID/organ
same,Organ distribution Intestine,[1]; 6 h,30 ± 3 % ID/organ
same,Organ distribution Liver,[1]; 6 h,1.9 ± 0.4 % ID/organ
same,Organ distribution Spleen,[1]; 6 h,0.04 ± 0.02 % ID/organ
same,Organ distribution Stomach,[1]; 6 h,4 ± 3 % ID/organ
same,Organ distribution Thyroid,[1]; 6 h,1.1 ± 0.4 % ID/organ
same,Organ distribution Tumour,[1]; 6 h,1.7 ± 0.5 % ID/organ
same,Organ distribution Intestine,[1]; 24 h,0.4 ± 0.1 % ID/organ
same,Organ distribution Liver,[1]; 24 h,0.13 ± 0.04 % ID/organ
same,Organ distribution Spleen,[1]; 24 h,0.00 ± 0.00 % ID/organ
same,Organ distribution Stomach,[1]; 24 h,0.07 ± 0.02 % ID/organ
same,Organ distribution Thyroid,[1]; 24 h,1.4 ± 0.6 % ID/organ
same,Organ distribution Tumour,[1]; 24 h,0.36 ± 0.07 % ID/organ
same,tumour standardized uptake value (SUVt),[1]; 1 h,1.5 ± 0.4
same,Uptake Lung,[1]; 1 h,0.90 ± 0.06 % ID/g
same,uptake BLOOD,[1]; 1 h,0.89 ± 0.07 % ID/g
same,uptake BRAIN,[1]; 1 h,0.20 ± 0.02 % ID/g
same,uptake HEART,[1]; 1 h,0.49 ± 0.03 % ID/g
same,uptake KIDNEY,[1]; 1 h,4.2 ± 0.6 % ID/g
same,uptake LIVER,[1]; 1 h,3.6 ± 0.9 % ID/g
same,uptake TUMOUR,[1]; 1 h,6.0 ± 1.6 % ID/g
same,tumour standardized uptake value (SUVt),[1]; 6 h,1.7 ± 0.5
same,Uptake Lung,[1]; 6 h,0.46 ± 0.13 % ID/g
same,uptake BLOOD,[1]; 6 h,0.60 ± 0.17 % ID/g
same,uptake BRAIN,[1]; 6 h,0.05 ± 0.01 % ID/g
same,uptake HEART,[1]; 6 h,0.24 ± 0.08 % ID/g
same,uptake KIDNEY,[1]; 6 h,2.4 ± 0.4 % ID/g
same,uptake LIVER,[1]; 6 h,2.2 ± 0.6 % ID/g
same,uptake TUMOUR,[1]; 6 h,3.9 ± 0.9 % ID/g
same,tumour standardized uptake value (SUVt),[1]; 24 h,9 ± 2
same,Uptake Lung,[1]; 24 h,0.03 ± 0.01 % ID/g
same,uptake BLOOD,[1]; 24 h,0.04 ± 0.01 % ID/g
same,uptake BRAIN,[1]; 24 h,0.001 % ID/g
same,uptake HEART,[1]; 24 h,0.02 ± 0.01 % ID/g
same,uptake KIDNEY,[1]; 24 h,0.08 ± 0.01 % ID/g
same,uptake LIVER,[1]; 24 h,0.12 ± 0.02 % ID/g
same,uptake TUMOUR,[1]; 24 h,1.0 ± 0.2 % ID/g
CCN(CC)CCNC(=O)c1ccc([18F])cc1 [structure A],reported tumour uptake,[2]; at 2 h,6.5 % ID/g
same,Typical Tumour: Blood ratio,[2],12
